Activity calls are given as the source filed them. The calls are words filed in the database; no cut-off is given here.

Common to all, as to format: cell-based
The target in assay [1] is Somatostatin receptor type 2 (Homo sapiens) (UniProt P30874). Briefly: Tested for inhibitory activity at human recombinant sst 2 receptors expressed in CHO-K1 cells; No inhibition showed more than 50% inhibition.
The target in assay [2] is T1, Somatostatin receptor type 5 (Homo sapiens, UniProt P35346). In words: Compound was tested for inhibition of specific [125I]Tyr11-SRIF binding to human recombinant SST5 (somatostatin) receptor expressed in CHO-K1 cells.
In assay [3] the target is T1, Somatostatin receptor type 5. In words: Compound was tested for inhibition of specific [125I]-Tyr11-SRIF binding to human recombinant SST5 (somatostatin) receptor expressed in CHO-K1 cells at 10e-6 M concentration.

Sequence of Somatostatin receptor type 2 (Homo sapiens) (P30874 whole entry): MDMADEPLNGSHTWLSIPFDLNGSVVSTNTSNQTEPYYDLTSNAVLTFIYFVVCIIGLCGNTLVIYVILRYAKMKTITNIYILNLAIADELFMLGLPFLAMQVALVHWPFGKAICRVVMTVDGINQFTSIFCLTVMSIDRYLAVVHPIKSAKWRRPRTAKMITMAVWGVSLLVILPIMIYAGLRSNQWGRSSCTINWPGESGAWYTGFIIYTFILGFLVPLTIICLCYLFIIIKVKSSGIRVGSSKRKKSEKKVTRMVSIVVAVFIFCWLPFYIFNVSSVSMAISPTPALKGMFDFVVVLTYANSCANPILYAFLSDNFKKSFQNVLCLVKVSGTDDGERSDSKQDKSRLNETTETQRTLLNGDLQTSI
T1 sequence (P35346 whole entry): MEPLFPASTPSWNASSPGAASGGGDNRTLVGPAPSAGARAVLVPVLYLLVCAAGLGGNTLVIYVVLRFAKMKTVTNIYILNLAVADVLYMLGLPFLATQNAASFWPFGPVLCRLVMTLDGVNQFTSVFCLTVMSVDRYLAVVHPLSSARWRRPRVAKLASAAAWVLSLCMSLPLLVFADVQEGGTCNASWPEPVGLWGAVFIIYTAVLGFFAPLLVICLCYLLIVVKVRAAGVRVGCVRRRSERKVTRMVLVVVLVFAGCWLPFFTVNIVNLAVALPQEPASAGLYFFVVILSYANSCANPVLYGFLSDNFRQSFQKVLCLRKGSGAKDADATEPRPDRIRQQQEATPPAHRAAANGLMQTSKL

Take `O=C1[C@H](Cc2ccc(OCc3ccccc3)cc2)N(CCC#Cc2ccccc2)C(=O)N1CCN1CCCC1`: in assay [1], the outcome was inactive. The half-maximal inhibitory concentration (IC50) in assay [2] was 0.316 µM.

For `NCCCC[C@@H](NC(=O)CC1SC(c2ccccc2)N([C@@H](Cc2ccc(-c3ccccc3)cc2)C(N)=O)C1=O)C(N)=O` (some centres undefined), the outcome in assay [1] was inactive. In assay [2], the concentration for half-maximal inhibition (IC50) was 1.41 µM.

As to `O=C1[C@H](Cc2ccc(OCc3ccccc3)cc2)N(CCCCc2ccccc2)C(=O)N1CCN1CCCC1`, the result in assay [1] was inactive. For the same molecule, the 50% inhibitory concentration (IC50) in assay [2] is 0.316 µM.

In the case of `COc1ccc(CCCCN2C(=O)N(CCN3CCCC3)C(=O)[C@@H]2Cc2cccc3ccccc23)cc1`, the outcome in assay [1] was inactive. In addition, in assay [3], the inhibition came out at 60%.

In the case of `COc1ccc(CCCCN2C(=O)N(CCN3CCCC3)C(=O)[C@@H]2Cc2ccc(OCc3ccccc3)cc2)cc1`, the outcome in assay [1] was inactive. The IC50 in assay [2] was 0.501 µM.

As for `O=C1[C@H](Cc2cccc3ccccc23)N(CCCCc2ccccc2)C(=O)N1CCN1CCCC1`, in assay [1], the result was inactive. In assay [3], the inhibition is 49%.

On to `O=C1[C@H](Cc2cccc3ccccc23)N(CCC#Cc2ccccc2)C(=O)N1CCN1CCCC1`, for which the result in assay [1] was inactive. Moreover, the 50% inhibitory concentration (IC50) in assay [2] was 0.398 µM.

The record behind these values is ChEMBL document CHEMBL1130716, “The solid phase synthesis of a series of tri-substituted hydantoin ligands for the somatostatin SST5 receptor” (Bioorg Med Chem Lett, 1998).
